Measurements: US8198280B2, “N-hydroxyamide derivatives and use thereof” (Merck Serono SA, priority 2005, dated 2012)

Columns and labels:
metalloelastase (MMP-12) = metalloelastase (MMP-12) (Homo sapiens, UniProt P39900); assay: MMP-12 enzyme inhibition assay (coumarin-labelled peptide substrate); type: biochemical; details: fluorogenic substrate McaPLGLDpaAR, 37° C., 2 hours
Protocol: (§1) Compounds of the invention were tested for inhibitory activity against 92 kDa gelatinase (MMP-9) in an assay using a coumarin-labeled peptide substrate, (7-methoxycoumarin-4-yl)acetyl-Pro-Leu-Gly-Leu-(3-[2,4-dinitrophenyl]-L-2,3-diaminopropionyl)-Ala-Arg-NH2 (McaPLGLDpaAR) (Knight et al, 1992, FEBS Lett., 263-266).
(§2) Stock solutions were made up as follows: Assay Butter: 100 mM Tris-HCl pH 7.6 containing 100 mM NaCl, 10 mM CaCl2, and 0.05% Brij 35.
(§3) Substrate: 0.4 mM McaPLGLDpaAR (from Bachem) (0.437 mg/ml) stock solution in 100% DMSO (stored at −20° C.). Dilute to 8 μM in assay butter.
(§4) Enzyme: Recombinant human 92 kDa gelatinase (MMP-9; APMA (4-aminophenyl mercuric acetate)-activated if necessary) appropriately diluted in assay butter.
(§5) Test Compounds were prepared initially as 10 mM compound solution in 100% DMSO, diluted to 1 mM in 100% DMSO, then serially diluted 3-fold in 100% DMSO across columns 1-10 of a 96-well microtitre plate Assay concentration range, 100 μM (column 1) to 5.1 nM (column 10).
(§6) The assay was performed in a total volume of 100 μL per well in 96-well microtitre plates. Activated enzyme (20 μL) was added to the wells followed by 20 μL of assay butter. Appropriate concentrations of test compounds dissolved in 10 μL of DMSO were then added followed by 50 μL of McaPLGLDpaAR ([…], prepared by dilution of DMSO stock in assay butter). For each as say ten concentrations of test compound were examined in duplicate. Control wells lack either enzyme or test compound. The reactions were incubated at 37° C. for 2 hours. The fluorescence at 405 nm was measured immediately with an SLT Fluostar fluorometer (SLT Labinstruments GmbH, Grodig, Austria) using 320 nm excitation, without stopping the reaction.
(§7) The effect of the test compound was determined from the dose response curve generated by the 10 duplicate concentrations of inhibitor. The IC50 (the concentration of compound required to give a 50% decrease in enzyme activity) was obtained by fitting data to the equation, Y=a+((b−a)/(1+(c/X)^d)). (Y=inhibition achieved for a particular dose; X=the dose in nM; a=minimum y or zero % inhibition; b=maximum y or 100% inhibition; c=is the IC50; d=is the slope). The result was rounded to one significant figure.
Compounds of the invention were tested for inhibitory activity against metalloelastase (MMP-12) in an assay using a coumarin-labelled peptide substrate, (7-methoxycoumarin-4-yl)acetyl-Pro-Leu-Gly-Leu-(3-[2,4dinitrophenyl]-L-2,3-diaminopropionyl)-Ala-Arg-NH2 (McaPLGLDpaAR) (Knight et al, 1992, above). The protocol for this assay was as described for the MMP-9 assay above.

collagenase (MMP-1) = biological target: T1, collagenase (MMP-1) (Homo sapiens, UniProt P03956); assay: MMP-1 enzyme inhibition assay (coumarin-labelled peptide substrate); type: biochemical; details: fluorogenic substrate McaPLGLDpaAR, 37° C., 2 hours
T1 sequence (P03956 100-469): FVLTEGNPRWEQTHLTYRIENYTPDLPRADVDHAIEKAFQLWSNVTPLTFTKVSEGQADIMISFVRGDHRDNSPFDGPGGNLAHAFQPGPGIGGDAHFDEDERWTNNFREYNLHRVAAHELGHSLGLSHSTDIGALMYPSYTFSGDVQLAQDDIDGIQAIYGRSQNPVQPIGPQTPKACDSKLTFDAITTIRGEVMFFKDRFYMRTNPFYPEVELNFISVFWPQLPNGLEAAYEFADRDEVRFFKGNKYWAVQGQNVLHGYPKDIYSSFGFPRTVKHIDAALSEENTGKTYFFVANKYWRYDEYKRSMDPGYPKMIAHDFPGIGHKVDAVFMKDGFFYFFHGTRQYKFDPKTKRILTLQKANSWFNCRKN
Protocol: as §1, §2, §3, §4, §5, §6, §7
Compounds of the invention were tested for inhibitory activity against collagenase (MMP-1) in an assay using a coumarin-labelled peptide substrate, (7-methoxycoumarin-4-yl)acetyl-Pro-Leu-Gly-Leu-(3-[2,4-dinitrophenyl]-L-2,3diaminopropionyl)-Ala-Arg-NH2 (Mca PLGLDpaAR) (Knight et al, 1992, above). The protocol for this assay was as described for the MMP-9 assay above.

[1] = system: IL-2-induced peritoneal recruitment of lymphocytes; assay: IL-2-induced peritoneal recruitment of lymphocytes; type: in vivo, C3H/HEN mice; details: mice, 1 mg/kg po, 15 min prior to IL-2; cells collected 24 h after IL-2
Protocol: Administration of IL-2 intraperitoneally causes migration of lymphocytes into the intraperitoneal cavity. This is a model for the cellular migration that occurs during inflammation.
C3H/HEN mice (Elevage Janvier, France) are intraperitoneally injected with IL-2 (Serono Pharmaceutical Research Institute, 20 μg/kg, in saline).
Compounds of the invention are suspended in 0.5% carboxymethylcellulose (CMC)/0.25% tween-20 and are administered by s.c. or p.o. route (10 ml/kg) 15 min prior to administration of IL-2.
Twenty-four hours after administration of IL-2, peritoneal white blood cells are collected by 3 successive lavages of the peritoneal cavity with 5 ml phosphate buffered saline (PBS)-1 mM EDTA (+4° C.). The suspension is centrifuged (1700 g×10 min at +4° C.). The resulting pellet is suspended in 1 ml PBS-1 mM EDTA.
Lymphocytes are identified and counted using a Beckman/Coulter counter.
The animals are divided into 6 groups (6 mice each group):
Group 1: (baseline) receives 0.5% CMC/0.25% tween-20 (vehicle of compound of the invention) and saline (vehicle of IL-2);
Group 2: (control IL-2) receives 0.5% CMC/0.25% tween-20 and injection of IL-2;
Group 3: Experimental group (Compound of the invention Dose 1) receives a compound of the invention and injection of IL-2; […]
Inhibition of lymphocyte recruitment is calculated as follows: […]

Chain of metalloelastase (MMP-12) (P39900 106-470): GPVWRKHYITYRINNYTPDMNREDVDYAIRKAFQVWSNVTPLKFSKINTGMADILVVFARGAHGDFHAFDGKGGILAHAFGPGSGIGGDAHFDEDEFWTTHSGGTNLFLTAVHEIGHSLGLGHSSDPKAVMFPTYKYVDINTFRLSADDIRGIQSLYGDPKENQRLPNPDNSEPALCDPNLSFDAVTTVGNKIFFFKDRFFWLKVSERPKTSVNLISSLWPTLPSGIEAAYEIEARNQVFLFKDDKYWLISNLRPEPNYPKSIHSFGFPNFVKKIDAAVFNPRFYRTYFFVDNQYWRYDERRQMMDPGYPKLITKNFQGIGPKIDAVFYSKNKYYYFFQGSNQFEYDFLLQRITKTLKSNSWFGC

IC50 (metalloelastase (MMP-12)) [nM]	IC50 (collagenase (MMP-1)) [nM]	Compound	% inhibition of IL-2-induced peritoneal recruitment of lymphocytes [1] [%]
5	> 5000	C[C@@H]1CN(c2ccc(-c3ccccc3)cc2)CCN1C(=O)C[C@H](O)C(=O)NO [Example 4, (2S)-4-[(2R)-4-biphenyl-4-yl-2-methylpiperazin-1-yl]-N,2-dihydroxy-4-oxobutanamide]	
264	> 5000	O=C(NO)[C@H](O)CC(=O)N1CCN(c2ccc(F)cc2)CC1 [Example 1, (2R)-4-[4-(4-fluorophenyl)piperazin-1-yl]-N,2-dihydroxy-4-oxo butanamide]	
58	> 5000	O=C(NO)[C@@H](O)CC(=O)N1CCN(c2ccc(F)cc2)CC1 [Example 2, (2S)-4-[4-(4-fluorophenyl)piperazin-1-yl]-N,2-dihydroxy-4-oxobutanamide]	51
5	> 5000	C[C@@H]1CN(c2ccc(OC(F)(F)F)cc2)CCN1C(=O)C[C@H](O)C(=O)NO [Example 3, (2S)—N,2-dihydroxy-4-{(2R)-2-methyl-4-[4-(trifluoromethoxy)phenyl]piperazin-1-yl}-4-oxobutanamide]	
